Measured values taken from ChEMBL document CHEMBL2311460, “Synthesis and antiplasmodial activity of some 1-azabenzanthrone derivatives” (Bioorg Med Chem Lett, 2013).
pIC50: −log10 of the molar value.

Columns and labels:
[1] = Selectivity index, ratio of IC50 for human MRC5 cells to IC50 for chloroquine-resistant Plasmodium falciparum FCR-3; type: toxicity, cell-based; details: read-out: Ratio IC50
MRC5 = test: Cytotoxicity against human MRC5 cells; type: cell-based
Plasmodium falciparum = test: Antiplasmodial activity against chloroquine-resistant Plasmodium falciparum FCR-3 infected in human A positive erythrocytes by [3H]-hypoxanthine incorporation assay; type: functional, organism-based; details: FCR-3/Gambia

Structure (SMILES)	selectivity ratio [1]	pIC50 (MRC5)	pIC50 (Plasmodium falciparum)
COc1cc2c3c(nccc3c1[N+](=O)[O-])-c1ccccc1C2=O	0.49	4.99	4.68
COc1cc2c3c(nccc3c1N)-c1ccccc1C2=O	0.37	4.43	4.00
COc1cc2c3c(c1)C(=O)c1ccccc1C3=NCC2	32.4	4.09	5.60
COc1cc2c3c(nccc3c1)-c1ccccc1C2=O	> 15.6	< 4.00	5.19
COc1cc2ccnc3c2c(c1[N+](=O)[O-])C(=O)c1ccccc1-3	1.42	4.10	4.25
COc1cc2ccnc3c2c(c1O)C(=O)c1ccccc1-3	1.27	4.19	4.29
COc1cc2c3c(nccc3c1Br)-c1ccccc1C2=O	> 1.99	< 4.00	4.28
COc1cc2ccnc3c2c(c1OC)C(=O)c1ccccc1-3	0.68	4.30	4.13
O=C1c2ccccc2-c2ncc(Br)c3cccc1c23	> 0.38	< 4.00	3.59
COc1cc2c3c(ncc(Br)c3c1)-c1ccccc1C2=O	0.13	4.54	3.66
O=C1c2ccccc2-c2nccc3cccc1c23	0.18	4.38	3.64
COc1cc2ccnc3c2c(c1N)C(=O)c1ccccc1-3 [LAKSHMININE]	0.18	4.75	4.00
